Experimental data taken from ChEMBL document CHEMBL1157539, “Thousands of chemical starting points for antimalarial lead identification” (Nature, 2010).

Test system: Plasmodium falciparum
Test: GSK_TCMDC: Inhibition of Plasmodium falciparum 3D7 in whole erythrocytes, using parasite LDH activity as an index of growth.
Format: functional, organism-based
Settings: Plasmodium falciparum, 3D7

Row | SMILES | XC50
1 | O=[N+]([O-])c1ccccc1/C=N/Nc1ccnc2ccc(C(F)(F)F)cc12 | 710 nM
2 | CCN(CC)CCN(Cc1ccc(-c2ccc(C(F)(F)F)cc2)cc1)C(=O)Cn1c(CCc2cccc(F)c2F)cc(=O)c(C)c1C | 624 nM
3 | CCC[C@@H]([C@@H](CC(C)C)C(=O)N[C@@H](CCC/N=C(/N)NS(C)(=O)=O)C(=O)Nc1nccs1)N(O)C=O | 941 nM
4 | CCNc1cc(C(=O)N[C@@H](Cc2ccccc2)[C@H](O)CNC(C)CCCC(C)C)cc(N2CCCS2(=O)=O)c1 (some centres not stated) | 219 nM
5 | FC(F)(F)c1cccc(C=NNc2nc3ccccc3[nH]2)c1 | 148 nM
6 | COc1cc2nc(-c3ccccc3)nc(N3CCN(CC(=O)N4CCCC4)CC3)c2cc1OC | 1130 nM
7 | CCC(C(=O)Nc1ccccc1)n1nc(-c2ccc(C)c(S(=O)(=O)N3CCCCC3)c2)ccc1=O (configuration not stated) | 1090 nM
8 | CCCCN(CCCC)CCCCNc1c2ccc(Cl)cc2nc2ccc(OC)cc12 | 175 nM
9 | CCc1ccccc1OCCCON1C(=N)N=C(N)NC1(C)C | 3.2 nM
10 | COc1cc(N(C)Cc2cnc3nc(N)nc(N)c3n2)cc(OC)c1OC | 435 nM
11 | CN(C)CCN(Cc1ccccc1-c1ccc(CNCCc2ccccc2)cc1)C(=O)c1ccccc1 | 1700 nM
12 | CCCN1CCN(c2ccccc2NS(=O)(=O)c2ccc(C(=O)Nc3ccc(Cl)cc3)cc2)CC1 | 1140 nM
13 | COc1ccc2nccc([C@@H](O)CN3CCC(NCc4nc5c(F)cccc5[nH]4)CC3)c2c1 | 467 nM
14 | COc1cc(CNc2ccc(N3CCCC3)cc2)cc(Cl)c1OC | 700 nM
15 | N=C(N)NC(=O)Nc1ccc(Cl)c(C(F)(F)F)c1 | 594 nM
16 | CC1(C)N=C(N)N=C(N)N1c1ccc2ccccc2c1 | 53.8 nM
17 | Cc1noc(C)c1-c1cccc(C(=O)NC2CCN(CCNC(=O)C(c3ccccc3)c3ccccc3)CC2)c1 | 1220 nM
18 | CSCCC(C(=O)O)N1C(=O)c2ccccc2C1=O (configuration not stated) | 1030 nM
19 | CCNc1cc(C(=O)NC(Cc2ccccc2)C(O)CNC(C)(C)CCCC(C)C)c(F)c(N2CCCS2(=O)=O)c1 (configuration not stated) | 197 nM
20 | COc1ccc2[nH]c(C)cc(=NN=Cc3ccc(F)cc3)c2c1 | 191 nM
21 | COc1cc(C(=O)NC2CC(C)(C)NC(C)(C)C2)ccc1-c1cc2cc(Cl)c(Cl)cc2[nH]1 | 724 nM
22 | Cn1cncc1-c1ccc2ncnc(Nc3ccc(OCc4ccccc4)cc3)c2c1 | 1340 nM
23 | FC(F)(F)c1cccc(Nc2nc3ccccc3nc2Nc2cccc(C(F)(F)F)c2)c1 | 137 nM
24 | O=C(NCCCCN1CCC(c2c[nH]c3ccc(-c4ccccc4)cc23)CC1)c1ccc(-c2ccccc2)cc1 | 985 nM
25 | N#Cc1cccc(-c2cnc(N)c(-c3nc4cc(S(N)(=O)=O)ccc4[nH]3)c2)c1 | 644 nM

Row | SMILES | XC50
26 | CCc1c(CCNCCCCCCNCCc2ccc([N+](=O)[O-])cc2)ccc(O)c1O | 783 nM
27 | CCOc1cc(C(=O)NCc2cccc(C(F)(F)F)c2)ccc1-c1nc2cc(Cl)ccc2[nH]1 | 977 nM
28 | O=C(CC(c1ccccc1)c1ccccc1O)N1CCOCC1 (configuration not stated) | 1520 nM
29 | CNCCNC(=O)C1Cc2c([nH]c3c(C)cccc23)C(c2ccc(Cl)c(Cl)c2)N1 (configuration not stated) | 716 nM
30 | CSc1nnc2n(Cc3ccccc3)c(=O)c3c(n12)-c1ccccc1CC31CCCCC1 | 969 nM
31 | O=C(/C=C/c1ccc(Cl)c(Cl)c1)NCCCCCN1CCC(NC(=O)Nc2cccc(Cl)c2)CC1 | 754 nM
32 | Cc1c(Cc2ccccc2)c(=O)oc2c(C)c3c(cc12)CN(CC(C)c1ccccc1)CO3 (configuration not stated) | 454 nM
33 | CC(=O)Nc1cccc(C(=O)Nc2cccc(-c3ccc(-c4nc5cccc(C)c5[nH]4)s3)c2)c1 | 767 nM
34 | COc1cc2cc(-c3nc4ccccc4[nH]3)c(N)nc2cc1OC | 168 nM
35 | COc1ccc2nccc([C@@H](O)CN3CCC(NCc4cc5cccc6c5n(c4=O)CCC6)CC3)c2c1 | 861 nM
36 | CC1(C)S(=O)(=O)CC(O)CS1(=O)=O | 467 nM
37 | CS(=O)(=O)Nc1ccc2[nH]cc(C3CCN(CC4CCC(NC(=O)/C=C/c5ccc(Cl)c(Cl)c5)CC4)CC3)c2c1 (configuration not stated) | 847 nM
38 | Cc1ccc(-c2csc(C)n2)c(C)c1 | 991 nM
39 | OC1(c2ccc(Br)cc2)CCN(C2CCN(Cc3ccccc3)CC2)CC1 | 597 nM
40 | Cc1ccc(CN2CCCN(Cc3ccc(C(=O)Nc4ccc(Cl)cc4)cc3)CC2)s1 | 1110 nM
41 | O=C(/C=C/c1ccc(Cl)c(Cl)c1)N1CCC(CN2CCC(c3c[nH]c4ncccc34)CC2)CC1 | 1090 nM
42 | CC[C@H]1CN2CC[C@H]1C[C@H]2[C@H](O)c1cc(-c2ccccc2C)nc2ccc(OC)cc12 | 195 nM
43 | O=C(Nc1cccc([N+](=O)[O-])c1)Nc1ccc(Cl)c(C(F)(F)F)c1 | 1120 nM
44 | Cc1cc(-c2ccc3c(c2)CCN(CCCOc2ccc4c(c2)CCN4C(=O)/C=C/c2ccccc2Cl)CC3)no1 | 1230 nM
45 | CCc1c(C(=O)NC2CCC(N3CCC(c4ccccc4C)CC3)CC2)[nH]c2ccc(OC)cc12 (configuration not stated) | 808 nM
46 | CC(CN(C)C)C(=O)Nc1ccc(-c2ccc(-c3nc4ccccc4[nH]3)s2)cc1 (configuration not stated) | 717 nM
47 | O=C(Cc1cn(-c2ccccc2)nc1-c1ccc(Cl)cc1)Nc1nccs1 | 1200 nM
48 | c1ccc(C23NC(=Nc4nc5ccccc5[nH]4)NC2(c2ccccc2)NC(=Nc2nc4ccccc4[nH]2)N3)cc1 (configuration not stated) | 276 nM
49 | COc1ccc(-c2cc(C(=O)N[C@@H](CC3CCCCC3)C(=O)NCCN3CCCC3)ccc2O)cc1 | 868 nM
50 | Cc1cnc(C(=O)Nc2ccc3c(c2)CCCN(Cc2c[nH]c4cnccc24)C3)cn1 | 1230 nM

Row | SMILES | XC50
51 | COc1ccc(CNC(=O)c2cc3c(=O)n4ccccc4nc3n(CCc3ccccc3)c2=N)cc1 | 330 nM
52 | Cc1cc(NC(=O)Nc2ccc3nc(C)oc3c2)c2cc(Cl)ccc2n1 | 1120 nM
53 | COc1cc2c(c(Cl)c1OC)CCN(Cc1ccccc1)CC2c1ccc(C(N)=O)cc1 (configuration not stated) | 848 nM
54 | COc1ccc(-c2ccc(S(=O)(=O)Nc3cc4c(cc3OC(C)C)CCNCC4)cc2)cc1 | 969 nM
55 | Nc1c2c(nc3ccc(C(=O)Nc4ccccc4)cc13)CCCC2 | 714 nM
56 | COc1ccc(C(=O)c2ccc3[nH]cc(C4=CCN(C)CC4)c3c2)cc1 | 1050 nM
57 | CC(Cc1ccc(OCCCCOc2ccccc2)cc1)NCCCc1nc2ccccc2[nH]1 (configuration not stated) | 981 nM
58 | N#Cc1ccc2c(c1)CCN(CCC1CCC(NC(=O)Nc3ccnc4ccccc34)CC1)C2 (configuration not stated) | 377 nM
59 | CCCCN(CCCC)/C(=N/C(=N)Nc1ccc(Cl)cc1)NCCCCCCN/C(=N\C(=N)Nc1ccc(Cl)cc1)N(CCCC)CCCC | 791 nM
60 | Cc1ccc(CNC(=O)[C@H](CCCN)Nc2nc(NCC3CCCCC3)ncc2C)cc1 | 987 nM
61 | FC(F)(F)c1ccc2[nH]c(-c3ccc(-c4cccc(CNCCN5CCNCC5)c4)cc3)nc2c1 | 1030 nM
62 | CC1CCN(c2nc(C(=O)NCCc3ccc(Cl)c(Cl)c3)c(C(C)C)s2)CC1 | 1930 nM
63 | COc1ccc2ncc(F)c(CCN3CC[C@H](NC(=O)c4ccc5c(n4)NC(=O)CS5)[C@H](O)C3)c2n1 | 947 nM
64 | COc1ccccc1-c1ccc2nnc(SCC(=O)Nc3ccc4c(c3)OCCO4)n2n1 | 716 nM
65 | O=S(=O)(NCCN1CCCC1)c1cccc(-c2cccc(CNCCc3cccs3)c2)c1 | 753 nM
66 | Cc1cc(OCCCN2CCC(NS(=O)(=O)c3ccc(C(F)(F)F)cc3)CC2)c2ccccc2n1 | 1220 nM
67 | Cc1cc(OCCCN2CCCCC2C)ccc1NC(=O)COc1ccc(Cl)cc1C(=O)c1cc(Cl)cc(C#N)c1 (configuration not stated) | 981 nM
68 | COc1ccc(Nc2nccc(N3CCC(NC(=O)Nc4ccc5c(c4)OCO5)C3)n2)cc1 (configuration not stated) | 599 nM
69 | COc1cc(-c2cc(-c3ccc(OCCN(C)C)cc3)[nH]c2-c2ccncc2)ccc1Cl | 711 nM
70 | COc1ccc(CNCc2ccc(F)cc2)cc1-c1ccc(S(=O)(=O)NCCN2CCCC2)cc1 | 1040 nM
71 | CCOc1cc(C(=O)NCCN2CCCCC2)ccc1-c1nc2cc(Cl)ccc2[nH]1 | 1080 nM
72 | COc1cc(C=CC(=O)N2CCC(CN3CCC(c4c[nH]c5ccccc45)CC3)CC2)cc(OC)c1 | 804 nM
73 | COC(=O)c1ccc(CCC(C)NCC(O)c2cccc(Cl)c2)cc1 (configuration not stated) | 670 nM
74 | CC(C)(C)c1ccc(NC(=O)c2ccc(CN3CCCN(Cc4cccc(F)c4)CC3)cc2)cc1 | 1120 nM
75 | CCS(=O)(=O)Nc1ccc2[nH]cc(C3CCN(CCC4CCN(C(=O)/C=C/c5ccc(Cl)c(Cl)c5)CC4)CC3)c2c1 | 534 nM

Row | SMILES | XC50
76 | Cc1ccc(C(=O)Nc2ccc(C)c(OC3CCN(CCC(C)C)C3)c2)cc1 (configuration not stated) | 793 nM
77 | COc1cccc(CNC[C@@H](O)[C@H](Cc2ccccc2)NC(=O)c2cc(N3CCCC3=O)c3[nH]cc(C(C)C)c3c2)c1 | 529 nM
78 | CCN(CC)CCNc1ccnc2c3ccccc3n(C)c12 | 238 nM
79 | CCCCN1CCN(CCCNc2c3ccccc3nc3ccccc23)CC1 | 512 nM
80 | CCCCOc1cc(OC)c2ccccc2c1CCNCCCCNCCc1c(OCCCC)cc(OC)c2ccccc12 | 1050 nM
81 | COc1ccc2[nH]cc(C3CCN(CCCCCNC(=O)c4ccc(-c5ccccc5)cc4)CC3)c2c1 | 795 nM
82 | Cc1ccc2ccncc2c1N | 697 nM
83 | O=C(/C=C/c1ccc(Cl)c(Cl)c1)NCC1CCC(CN2CCC(c3c[nH]c4ccccc34)CC2)CC1 (configuration not stated) | 356 nM
84 | Cc1csc(-c2nc(NCCc3c(C)noc3C)ncc2-c2ccsc2)n1 | 177 nM
85 | Cc1nnc(-c2ccc3ccccc3c2)c2cn(-c3cccc([N+](=O)[O-])c3)nc12 | 988 nM
86 | COc1ccc(C(=O)C2CC2CN2CC=C(c3c[nH]c4ccccc34)CC2)cc1 (configuration not stated) | 532 nM
87 | Cc1c(Cn2ncc(N3CC(C)NC(C)C3)c(Cl)c2=O)cccc1NC(=O)Nc1ccc(-c2ccccc2)cc1 (configuration not stated) | 596 nM
88 | COc1cccc(-c2nn(C)c3sc(C(=O)NCCN4CCN(c5ccccc5F)CC4)cc23)c1 | 955 nM
89 | CN1CCC(NCc2ccc(-c3ccc(S(=O)(=O)NCc4ccccc4)c(F)c3)cc2)CC1 | 611 nM
90 | CS(=O)(=O)NCCCNCc1ccc(-c2ccc(-c3nc4cc(F)ccc4[nH]3)cc2)cc1 | 935 nM
91 | CCCCCCc1ncc(-c2cc3cc(O)c(-c4ccccc4)cc3oc2=O)s1 | 1240 nM
92 | COc1cccc(NC(=O)NC2CCN(c3ccnc(Nc4cc(OC)c(OC)c(OC)c4)n3)C2)c1 (configuration not stated) | 856 nM
93 | Cc1ccc(CN2CCC(C(=O)Nc3ccc(-c4cc5ccccc5[nH]4)cc3)CC2)o1 | 1420 nM
94 | CCCOc1ccc(OCCCON2C(=N)N=C(N)NC2(C)C)cc1 | 3.2 nM
95 | N#Cc1ccccc1S(=O)(=O)N1CCCC(CNC(=O)[C@H](CC2CCCCC2)NC(=O)c2cc3ccccc3s2)C1 (some centres not stated) | 515 nM
96 | CS(=O)(=O)N(CC(O)Cn1c2ccc(Cl)cc2c2cc(Cl)ccc21)c1ccccc1 (configuration not stated) | 897 nM
97 | CN1CCCC(CN2CCN(Cc3cccc(-c4csc(-c5nc6ccccc6[nH]5)c4)c3)CC2)C1 (configuration not stated) | 414 nM
